The record followed here is US20130244929A1 (priority 2010, published 2013).

Counter-ions that a name gives are not always drawn. Like-named read-outs stand apart in the source and are kept apart here.

One experiment concerns the target T1, SpsB (Staphylococcus aureus, UniProt P0A070).
T1 construct: using a bacterial membrane fraction as a source of SpsB; from tissue
T1 sequence (P0A070 1-191): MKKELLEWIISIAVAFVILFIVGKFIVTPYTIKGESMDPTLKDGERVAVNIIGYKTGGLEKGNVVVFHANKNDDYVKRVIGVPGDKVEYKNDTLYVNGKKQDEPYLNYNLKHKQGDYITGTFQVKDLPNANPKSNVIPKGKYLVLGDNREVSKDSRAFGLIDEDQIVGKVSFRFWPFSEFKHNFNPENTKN
In words: Inhibition of SpsB enzyme activity (fluorescence-based assay, bacterial membrane fraction). The format is biochemical. As for the experimental part: Signal peptidase enzyme activity was measured in a fluorescence-based assay using a bacterial membrane fraction as a source of SpsB (See Bruton et al., 2003, Eur J Med Chem 38:351-356). The SpsB substrate is a synthetic lipopeptide, decanoyl-K(DABCYL)-TPTAKA↓ASKKD-D(EDANS)—NH2 (prepared by JPT Peptide Technologies, Berlin, Germany). Assays were performed with 20 μM peptide substrate (Km≈5 μM) and reactions were initiated with enzyme addition (final protein concentration of 0.6 mg/mL). SpsB mediated cleavage of the peptide substrate was detected as an increase in fluorescence (excitation 340 nm/emission 460 nm).

The test system of experiment [1] is MB 5393 (COL), a methicillin-resistant S. aureus strain. In words: Determination of minimum and synergistic inhibitory concentration. The format is cell-based. The conditions noted are these: for SIC: presence of imipenem (4 μg/mL); for MIC: Staphylococcus aureus. As for the experimental part: MB 5393 (COL), a methicillin-resistant S. aureus strain, was inoculated into Trypticase Soy Broth (TSB, BBL) and grown in a humidified incubator for 18 hours with rotary shaking at 220 rpm and kept on ice until used.
A quantity of imipenem (Merck Chemical Collection) was weighed out and dissolved into sterile 10 mM MOPS buffer at pH 7. This solution was diluted to 1600 μg/mL, 200 μg/mL, and 25 μg/mL and filter-sterilized through a 0.45 μm filter. From these solutions, seven 1:2 serial dilutions were prepared using sterile 10 mM MOPS buffer at pH 7. The final concentration ranges tested were 128 to 2 μg/mL, 16 to […], and 2 to 0.03 μg/mL. The solutions were kept refrigerated until used.
Test compounds (EXAMPLES 1-67) were prepared in sterile water or DMSO at a concentration of 3.2 mg/mL. From this solution, 11 serial 1:2 dilutions were prepared using sterile water. The final concentration range tested was 64 to 0.0313 μg/mL. The solutions were kept refrigerated until used.
Two-fold serial dilutions of test compounds were tested in the presence and absence of subinhibitory concentrations of imipenem (4 μg/mL) in 96-well U bottom microliter dishes in microbiological growth media. The plates were inoculated with bacterial cells to a final concentration of ˜5×10^5 CFU/mL. Test plates were incubated stationery at 37° C. for 22-24 hours.
After 22 hours of incubation, the Minimum inhibitory concentrations (MICs) were determined, defined as the lowest concentration of antibiotic that prevented all visible growth in the absence of imipenem. Synergistic inhibitory concentrations (SICs) were determined, defined as the lowest concentration of antibiotic that prevented all visible growth in the presence of imipenen.

Where [2] appears, read: 20 μM peptide substrate, read-out: SpsB IC50.
The mark [3] stands for this setting: MRSA COL, absence of imipenem, 22 hours, read-out: MIC.

For the compound `CCCc1ccc(-c2ccc(C(=O)NCCC(=O)N[C@H](CCCCN)C(=O)N(C)[C@@H]3C(=O)N[C@@H](C)C(=O)N[C@H](CO)Cc4ccc(O)c(c4)-c4cc3ccc4O)cc2)cc1.O=C(O)C(F)(F)F` (mixture of isomers) [EXAMPLE 5, (5R,S)-6-[[(7S,10S,13S)-3,18-dihydroxy-13-(hydroxymethyl)-10-methyl-8,11-dioxo-9,12-diazatricyclo[13.3.1.1^2,6]icosa-1(19),2(20),3,5,15,17-hexaen-7-yl](methyl)amino]-6-oxo-5-[(3-{[(4′-propylbiphenyl-4-yl)carbonyl]amino}propanoyl)amino]hexan-1-aminium trifluoroacetate], at SpsB (setting [2]), the IC50 (usually the midpoint of a concentration-inhibition curve) is less than 10 nM. Further, the SIC result in experiment [1] (MRSA COL, 22 hours) is on record as “H (H: SIC 0.062-1)”. In experiment [1] (setting [3]), the MIC – broadly, the lowest concentration found to suppress growth – was less than 1 µg/mL.

Turning to `CCCCCCCCCCc1ccc2cc(C(=O)NCCC(=O)N3CCCC3C(=O)N(C)[C@@H]3C(=O)N[C@@H](C)C(=O)N[C@H](C(=O)O)Cc4ccc(O)c(c4)-c4cc3ccc4O)ccc2c1` (stereo in doubt) [EXAMPLE 14, (8S,11S,14S)-3,18-dihydroxy-11-methyl-14-(methyl{[(2R)-1-{3-[(6-decyl-2-naphthoyl)amino]propanoyl}pyrrolidin-2-yl]carbonyl}amino)-10,13-dioxo-9,12-diazatricyclo[13.3.1.1^2,6]icosa-1(19),2(20),3,5,15,17-hexaene-8-carboxylic acid], the IC50 against SpsB was less than 10 nM. Besides, in experiment [1] (MRSA COL, 22 hours), the SIC result is “G (G: SIC <0.0625)”. Further, the MIC in experiment [1] (setting [3]) was less than 1 µg/mL.

The compound `CCCc1ccc(-c2ccc(C(=O)NCCC(=O)NC(CCCCN)C(=O)N(C)[C@@H]3C(=O)N[C@@H](C)C(=O)N[C@H](C(=O)O)Cc4ccc(OC)c(c4)-c4cc3ccc4OC)cc2)cc1.O=C(O)C(F)(F)F` (stereo partly drawn) [EXAMPLE 1, 6-[[(7S,10S,13S)-13-carboxy-3,18-dimethoxy-10-methyl-8,11-dioxo-9,12-diazatricyclo[13.3.1.1^2,6]icosa-1(19),2(20),3,5,15,17-hexaen-7-yl](methyl)amino]-6-oxo-5-[(3-{[(4′-propylbiphenyl-4-yl)carbonyl]amino}propanoyl)amino]hexan-1-aminium trifluoroacetate] displayed an IC50 against SpsB of 10 to 50 nM. Also, the SIC entry in experiment [1] (MRSA COL, 22 hours) was “H (H: SIC 0.062-1)”. Besides, the MIC in experiment [1] (setting [3]) fell in the range of 1 to 8 µg/mL.

Turning to `CCCc1ccc(-c2ccc(C(=O)NCCC(=O)NC(CCCCN)C(=O)N(C)[C@@H]3C(=O)N[C@@H](C)C(=O)N[C@H](C(=O)O)Cc4ccc(O)c(c4)-c4cc3ccc4O)cc2)cc1.O=C(O)C(F)(F)F` (stereo partly drawn) [EXAMPLE 2, 5-(R,S)-6-[[(7S,10S,3S)-13-carboxy-3,18-dihydroxy-10-methyl-8,11-dioxo-9,12-diazatricyclo[13.3.1.1^2,6]icosa-1(19),2(20),3,5,15,17-hexaen-7-yl](methyl)amino]-6-oxo-5-[(3-{[(4′-propylbiphenyl-4-yl)carbonyl]amino}propanoyl)amino]hexan-1-aminium trifluoroacetate], the IC50 on SpsB was 10 to 50 nM. Also, the SIC entry in experiment [1] (MRSA COL, 22 hours) is listed as “H (H: SIC 0.062-1)”. Further, the MIC in experiment [1] (setting [3]) was in the range of 1 to 8 µg/mL.

`CCCc1ccc(-c2ccc(C(=O)NCCC(=O)N[C@H](CCCCN)C(=O)N(C)[C@@H]3C(=O)N[C@@H](C)C(=O)N[C@H](C(=O)O)Cc4ccc(O)c(c4)-c4cc3ccc4O)cc2)cc1.O=C(O)C(F)(F)F` [EXAMPLE 4, (5R)-6-[[(7S,10S,13S)-13-carboxy-3,18-dihydroxy-10-methyl-8,11-dioxo-9,12-diazatricyclo[13.3.1.1^2,6]icosa-1(19),2(20),3,5,15,17-hexaen-7-yl](methyl)amino]-6-oxo-5-[(3-{[(4′-propylbipherryl-4-yl)carbonyl]amino}propanoyl)amino]hexan-1-aminium trifluoroacetate] returned an IC50 against SpsB greater than 50 nM. Further, in experiment [1] (MRSA COL, 22 hours), the SIC result was “I (I: SIC >1)”. The MIC in experiment [1] (setting [3]) was greater than 8 µg/mL.

`CCCc1ccc(-c2ccc(C(=O)NCCC(=O)NC(CCCCN)C(=O)N(C)[C@@H]3C(=O)N[C@@H](C)C(=O)N[C@H](C(N)=O)Cc4ccc(O)c(c4)-c4cc3ccc4O)cc2)cc1.O=C(O)C(F)(F)F` (stereo partly drawn) [EXAMPLE 6, trifluoroacetate]: the IC50 on SpsB lay in the range of 10 to 50 nM.

In the case of `CCCc1ccc(-c2ccc(C(=O)NCCC(=O)NC(CCCCN)C(=O)N(C)[C@@H]3C(=O)N[C@@H](C)C(=O)N[C@H](C(N)=O)Cc4ccc(O)c(c4)-c4cc3ccc4O)cc2)cc1.O=C(O)C(F)(F)F` (stereo partly drawn) [EXAMPLE 6], the SIC result in experiment [1] (MRSA COL, 22 hours) is recorded as “H (H: SIC 0.062-1)”. Also, in experiment [1] (MRSA, 22 h), the MIC was less than 1 µg/mL.

As to `C[C@@H]1NC(=O)[C@@H](N(C)C(=O)C(CCCCN)NC(=O)CCNC(=O)c2ccc(-c3ccc(-c4ccccc4)cc3)cc2)c2ccc(O)c(c2)-c2cc(ccc2O)C[C@@H](C(=O)O)NC1=O.O=C(O)C(F)(F)F` (stereo partly drawn) [EXAMPLE 7, 6-[[(7S,10S,13S)-13-carboxy-3,18-dihydroxy-10-methyl-8,11-dioxo-9,12-diazatricyclo[13.3.1.1^2,6]icosa-1(19),2(20),3,5,15,17-hexaen-7-yl](methyl)amino]-6-oxo-5-({3-[(1,1′:4′,1″-terphenyl-4-ylcarbonyl)amino]propanoyl}amino)hexan-1-aminium trifluoroacetate], the IC50 against SpsB lay within 10 to 50 nM. Moreover, in experiment [1] (MRSA COL, 22 hours), the SIC entry was “H (H: SIC 0.062-1)”. Besides, the MIC in experiment [1] (setting [3]) is less than 1 µg/mL.

On SpsB, `CCCc1ccc(-c2ccc(C(=O)NCCC(=O)N[C@@H](CCCNC(=N)N)C(=O)N(C)[C@@H]3C(=O)N[C@@H](C)C(=O)N[C@H](C(=O)O)Cc4ccc(O)c(c4)-c4cc3ccc4O)cc2)cc1.O=C(O)C(F)(F)F` [EXAMPLE 8, ({(4S)-5-[[(7S,10S,13S)-13-carboxy-3,18-dihydroxy-10-methyl-8,11-dioxo-9,12-diazatricyclo[13.3.1.1^2,6]icosa-1(19),2(20),3,5,15,17-hexaen-7-yl](methyl)amino]-5-oxo-4-[(3-{[(4′-propylbiphenyl-4-yl)carbonyl]amino}propanoyl)amino]pentyl}amino)(imino)methanaminium trifluoroacetate] gave an IC50 of 10 to 50 nM. In addition, in experiment [1] (MRSA COL, 22 hours), the SIC entry is recorded as “H (H: SIC 0.062-1)”. In addition, in experiment [1] (setting [3]), the MIC is 1 to 8 µg/mL.

Regarding `CCCc1ccc(-c2ccc(C(=O)NCCC(=O)NC(CCCCN)C(=O)N(C)[C@@H]3C(=O)N[C@@H](C)C(=O)N[C@H](C(=O)O)Cc4cccc(c4)-c4cccc3c4)cc2)cc1.O=C(O)C(F)(F)F` (stereo partly drawn) [EXAMPLE 9, 6-[[(7S,10S,13S)-13-carboxy-10-methyl-8,11-dioxo-9,12-diazatricyclo[13.3.1.1^2,6]icosa-1(19),2(20),3,5,15,17-hexaen-7-yl](methyl)amino]-6-oxo-5-[(3-{[(4′-propylbiphenyl-4-yl)carbonyl]amino}propanoyl)amino]hexan-1-aminium trifluoroacetate], at SpsB, the IC50 lay within 10 to 50 nM. Besides, the SIC result in experiment [1] (MRSA COL, 22 hours) is “H (H: SIC 0.062-1)”. In experiment [1] (setting [3]), the MIC was greater than 8 µg/mL.

For `CCCCc1ccc(C#Cc2ccc(C(=O)NCCC(=O)NC(CCCCN)C(=O)N(C)[C@@H]3C(=O)N[C@@H](C)C(=O)N[C@H](C(=O)O)Cc4ccc(OC)c(c4)-c4cc3ccc4OC)cc2)cc1` (stereo partly drawn) [EXAMPLE 10, 5-{[3-({4-[(4-butylphenyl)ethynyl]benzoyl}amino)propanoyl]amino}-6-[[(7S,10S,13S)-13-carboxy-3,18-dimethoxy-10-methyl-8,11-dioxo-9,12-diazatricyclo[13.3.1.1^2,6]icosa-1(19),2(20),3,5,15,17-hexaen-7-yl](methyl)amino]-6-oxohexart-1-aminium trifluoroacetate], the half-inhibitory concentration (IC50) against SpsB is less than 10 nM. For the same compound, in experiment [1] (MRSA COL, 22 hours), the SIC result was “H (H: SIC 0.062-1)”. In experiment [1] (setting [3]), the MIC is 1 to 8 µg/mL.

In the case of `CCCc1ccc(-c2ccc(C(=O)NCCC(=O)N(CCCCN)CC(=O)N(C)[C@@H]3C(=O)N[C@@H](C)C(=O)N[C@H](C(=O)O)Cc4ccc(OC)c(c4)-c4cc3ccc4OC)cc2)cc1.O=C(O)C(F)(F)F` [EXAMPLE 11, 4-[{2-[[(7S,10S,13S)-13-carboxy-3,18-dimethoxy-10-methyl-8,11-dioxo-9,12-diazatricyclo[13.3.1.1^2,6]icosa-1(19),2(20),3,5,15,17-hexaen-7-yl](methyl)amino]-2-oxoethyl}(3-{[(4′-propylbiphenyl-4-yl)carbonyl]amino}propanoyl)amino]butan-1-aminium trifluoroacetate], the IC50 at SpsB (setting [2]) lay within 10 to 50 nM. Besides, in experiment [1] (MRSA COL, 22 hours), the SIC result is given as “H (H: SIC 0.062-1)”. Besides, the MIC in experiment [1] (setting [3]) is greater than 8 µg/mL.
